Experimental data published in patent KR20170082372A, “Sirt6의 활성 조절용 조성물” (한국화학연구원, priority 2016, dated 2017).

Target: T1, recombinant Sirt6 enzyme (Homo sapiens, UniProt Q8N6T7)
T1 construct: purchased Cyclex CY-1156
Assay: CycLex Sirt6 deacetylase fluorometric assay (cat. CY-1156)
Assay type: biochemical
Details: 1 h, room temperature; for EC50: increase of Sirt6 deacetylase activity; for activity at 5 µM (stock): screening at 5uM, no test sample control = 100

T1 sequence (Q8N6T7 whole entry): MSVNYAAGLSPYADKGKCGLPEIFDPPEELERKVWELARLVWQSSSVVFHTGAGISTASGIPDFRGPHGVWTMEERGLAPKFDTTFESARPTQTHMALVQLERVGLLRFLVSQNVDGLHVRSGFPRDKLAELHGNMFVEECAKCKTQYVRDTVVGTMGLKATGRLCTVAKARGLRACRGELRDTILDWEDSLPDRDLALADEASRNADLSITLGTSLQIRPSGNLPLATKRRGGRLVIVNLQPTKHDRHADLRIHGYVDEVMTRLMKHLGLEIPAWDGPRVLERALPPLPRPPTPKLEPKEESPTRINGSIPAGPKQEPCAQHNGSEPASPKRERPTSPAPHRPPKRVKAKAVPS

Row | EC50 | activity at 5 µM (stock) | Structure (SMILES)
1 | 2.8 µM | ≥ 200% | COc1ccc(-c2nnn3c2nc(NC(C)c2ccccc2)c2ccccc23)cc1 (stereo not shown) [화학식 2, 3-(4-methoxyphenyl)-N-(1-phenylethyl)-[1,2,3]triazolo[1,5-a]quinazolin-5-amine]
2 | 5 µM | ≥ 200% | NNc1nc2c(-c3cccc(C(F)(F)F)c3)nnn2c2ccccc12 [화학식 1, 5-hydrazinyl-3-(3-(trifluoromethyl)phenyl)-[1,2,3]triazolo[1,5-a]quinazoline]
